Source: patent US20260297081A1, “COMPOUNDS AND METHODS OF TREATING CANCERS” (Cullgen Inc., priority 2023, published 2026)

How the values were obtained:
MCF7 cells = experiment: Anti-proliferation (viability) of MCF7 cells (Table 7, FIG. 2B); format: cell-based; conditions: Homo sapiens, MCF7, MCF7 cells, 3-6 days, 10-point serial dilution; read-out: GI IC50 in MCF-7
CDK4 = CDK4 (Homo sapiens, UniProt P11802+Q16531); experiment: HiBiT detection of HiBiT-tagged CDK4 protein level in MCF7 cells, 16 hours (Table 8); format: cell-based; set-up: expressed in transfected cells; host or cells: MCF7; conditions: MCF7 cells stably expressing HiBiT tagged target proteins; for activity at 0.01 µM: 10 nM, read-out: % CDK4 Relative Level (10 nM); for activity at 0.1 µM: 100 nM, read-out: % CDK4 Relative Level (100 nM)
Protocol: HiBiT detection system quantitatively measures total amounts of HiBiT-tagged proteins using a luminescent based method. MCF7 cells stably expressing HiBiT tagged target proteins were treated with heterobifunctional compounds at indicated concentrations for 16 hours, then lysed with Nano-Glo HiBiT Lytic detection reagents.

CDK4, sequence (P11802 whole entry): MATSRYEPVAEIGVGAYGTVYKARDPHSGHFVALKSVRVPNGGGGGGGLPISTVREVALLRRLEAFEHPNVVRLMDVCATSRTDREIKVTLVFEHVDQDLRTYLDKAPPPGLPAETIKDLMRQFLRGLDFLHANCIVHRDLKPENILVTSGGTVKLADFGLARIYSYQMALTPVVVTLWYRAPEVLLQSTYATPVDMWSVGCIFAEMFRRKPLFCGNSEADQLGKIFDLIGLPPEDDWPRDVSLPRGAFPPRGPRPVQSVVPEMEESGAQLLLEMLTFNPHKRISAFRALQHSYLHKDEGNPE
CDK4, sequence (P24385 whole entry partner): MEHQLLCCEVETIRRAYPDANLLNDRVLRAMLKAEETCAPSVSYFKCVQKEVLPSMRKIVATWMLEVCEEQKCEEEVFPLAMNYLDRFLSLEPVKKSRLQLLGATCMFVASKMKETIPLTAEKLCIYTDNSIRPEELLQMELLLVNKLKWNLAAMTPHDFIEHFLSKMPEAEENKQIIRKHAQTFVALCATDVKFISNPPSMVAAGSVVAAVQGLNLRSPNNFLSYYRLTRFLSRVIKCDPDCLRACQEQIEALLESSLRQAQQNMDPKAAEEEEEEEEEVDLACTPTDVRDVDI
CDK4, sequence (Q16531 2-1140 limits assumed): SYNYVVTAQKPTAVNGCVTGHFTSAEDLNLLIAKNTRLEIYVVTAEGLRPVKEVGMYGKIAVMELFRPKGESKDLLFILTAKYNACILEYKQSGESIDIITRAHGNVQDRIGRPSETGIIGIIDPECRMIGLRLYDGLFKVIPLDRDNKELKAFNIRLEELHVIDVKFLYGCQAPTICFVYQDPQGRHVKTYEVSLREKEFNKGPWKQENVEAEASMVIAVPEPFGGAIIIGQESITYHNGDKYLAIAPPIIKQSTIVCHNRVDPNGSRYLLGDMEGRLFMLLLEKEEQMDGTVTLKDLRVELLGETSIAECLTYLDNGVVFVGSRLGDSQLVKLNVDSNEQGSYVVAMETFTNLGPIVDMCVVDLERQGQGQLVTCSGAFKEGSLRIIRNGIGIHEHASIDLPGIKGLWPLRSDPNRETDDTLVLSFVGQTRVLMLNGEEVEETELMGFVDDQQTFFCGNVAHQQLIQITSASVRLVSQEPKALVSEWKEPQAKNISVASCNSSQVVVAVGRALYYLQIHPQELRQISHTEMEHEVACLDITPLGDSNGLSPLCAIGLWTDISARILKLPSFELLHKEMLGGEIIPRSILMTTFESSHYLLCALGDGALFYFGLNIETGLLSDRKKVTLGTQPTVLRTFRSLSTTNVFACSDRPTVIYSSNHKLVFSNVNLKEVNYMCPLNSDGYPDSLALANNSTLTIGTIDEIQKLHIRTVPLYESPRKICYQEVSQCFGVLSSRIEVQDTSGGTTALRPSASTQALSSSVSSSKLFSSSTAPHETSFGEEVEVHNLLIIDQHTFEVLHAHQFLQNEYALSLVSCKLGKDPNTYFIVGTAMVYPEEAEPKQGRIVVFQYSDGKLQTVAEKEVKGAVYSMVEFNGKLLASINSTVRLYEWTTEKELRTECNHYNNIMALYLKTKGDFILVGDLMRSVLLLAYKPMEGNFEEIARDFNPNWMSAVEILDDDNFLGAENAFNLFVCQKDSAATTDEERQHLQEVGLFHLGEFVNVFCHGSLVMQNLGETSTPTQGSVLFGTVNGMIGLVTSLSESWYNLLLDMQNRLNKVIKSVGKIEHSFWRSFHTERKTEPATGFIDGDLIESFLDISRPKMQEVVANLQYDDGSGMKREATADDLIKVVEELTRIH

IC50 (MCF7 cells)	activity at 0.01 µM (CDK4)	activity at 0.1 µM (CDK4)	SMILES
> 100 nM	55 to 85%	55 to 85%	CNc1ccc(C(=O)Nc2ccc(N(C)C)nn2)c(NCCCCCCNC(=O)CN2CCN(c3ccc(Nc4ncc5cc(C(=O)N(C)C)n(C6CCCC6)c5n4)nc3)CC2)n1 [CPD-628, 7-cyclopentyl-2-((5-(4-(2-((6-((3-((6-(dimethylamino)pyridazin-3-yl)carbamoyl)-6-(methylamino)pyridin-2-yl)amino)hexyl)amino)-2-oxoethyl)piperazin-1-yl)pyridin-2-yl)amino)-N,N-dimethyl-7H-pyrrolo[2,3-d]pyrimidine-6-carboxamide]
> 100 nM	> 85%	55 to 85%	CNc1ccc(C(=O)Nc2ccc(N(C)C)nn2)c(NCCCCC(=O)N2CCN(c3ccc(Nc4ncc5cc(C(=O)N(C)C)n(C6CCCC6)c5n4)nc3)CC2)n1 [CPD-618, 7-cyclopentyl-2-((5-(4-(5-((3-((6-(dimethylamino)pyridazin-3-yl)carbamoyl)-6-(methylamino)pyridin-2-yl)amino)pentanoyl)piperazin-1-yl)pyridin-2-yl)amino)-N,N-dimethyl-7H-pyrrolo[2,3-d]pyrimidine-6-carboxamide]
< 50 nM	55 to 85%	55 to 85%	CC(=O)c1c(C)c2cnc(Nc3ccc(N4CCN(C5CCN(C(=O)C67CC(Nc8nc(NC(C)C)ccc8C(=O)Nc8cc(C)n(C)n8)(C6)C7)C5)CC4)cn3)nc2n(C2CCCC2)c1=O (stereo not drawn) [CPD-587, 2-((3-(3-(4-(6-((6-acetyl-8-cyclopentyl-5-methyl-7-oxo-7,8-dihydropyrido[2,3-d]pyrimidin-2-yl)amino)pyridin-3-yl)piperazin-1-yl)pyrrolidine-1-carbonyl)bicyclo[1.1.1]pentan-1-yl)amino)-N-(1,5-dimethyl-1H-pyrazol-3-yl)-6-(isopropylamino)nicotinamide]
< 50 nM	55 to 85%	55 to 85%	CC(=O)c1c(C)c2cnc(Nc3ccc(CN4CCN(CC(=O)NC5CC6(C5)CC(Nc5nc(NC(C)C)ccc5C(=O)Nc5cc7n(n5)CCC7)C6)CC4)cn3)nc2n(C2CCCC2)c1=O (stereo not drawn) [CPD-584, 2-((6-(2-(4-((6-((6-acetyl-8-cyclopentyl-5-methyl-7-oxo-7,8-dihydropyrido[2,3-d]pyrimidin-2-yl)amino)pyridin-3-yl)methyl)piperazin-1-yl)acetamido)spiro[3.3]heptan-2-yl)amino)-N-(5,6-dihydro-4H-pyrrolo[1,2-b]pyrazol-2-yl)-6-(isopropylamino) nicotinamide]
< 50 nM	55 to 85%	55 to 85%	CC(=O)c1c(C)c2cnc(Nc3ccc(N4CCC5(CCN(CC(=O)N6CC7(CC(Nc8nc(NC(C)C)ccc8C(=O)Nc8ccc(N(C)C)nn8)C7)C6)C5)C4)cn3)nc2n(C2CCCC2)c1=O (stereo not drawn) [CPD-448, 2-((2-(2-(7-(6-((6-acetyl-8-cyclopentyl-5-methyl-7-oxo-7,8-dihydropyrido[2,3-d]pyrimidin-2-yl)amino)pyridin-3-yl)-2,7-diazaspiro[4.4]nonan-2-yl)acetyl)-2-azaspiro[3.3]heptan-6-yl)amino)-N-(6-(dimethylamino)pyridazin-3-yl)-6-(isopropylamino)nicotinamide]
> 100 nM	> 85%	> 85%	CNc1ccc(C(=O)Nc2ccc(N(C)C)nn2)c(NCCOCCOCCC(=O)N2CCN(Cc3ccc(Nc4ncc(F)c(-c5cc(F)c6nc(C)n(C(C)C)c6c5)n4)nc3)CC2)n1 [CPD-607, N-(6-(dimethylamino)pyridazin-3-yl)-2-((2-(2-(3-(4-((6-((5-fluoro-4-(4-fluoro-1-isopropyl-2-methyl-1H-benzo[d]imidazol-6-yl)pyrimidin-2-yl)amino)pyridin-3-yl)methyl)piperazin-1-yl)-3-oxopropoxy)ethoxy)ethyl)amino)-6-(methylamino)nicotinamide]
> 100 nM	> 85%	> 85%	CC(C)Nc1ccc(C(=O)Nc2ccc(N(C)C)nn2)c(NC2CC3(C2)CN(C(=O)CN2CCN(Cc4ccc(Nc5ncc6cc7n(c6n5)C5(CCCCC5)CNC7=O)nc4)CC2)C3)n1 [CPD-557, N-(6-(dimethylamino)pyridazin-3-yl)-6-(isopropylamino)-2-((2-(2-(4-((6-((6′-oxo-7′,8′-dihydro-6′H-spiro[cyclohexane-1,9′-pyrazino[1′,2′:1,5]pyrrolo[2,3-d]pyrimidin]-2′-yl)amino)pyridin-3-yl)methyl)piperazin-1-yl)acetyl)-2-azaspiro[3.3]heptan-6-yl)amino)nicotinamide]
< 50 nM	> 85%	55 to 85%	CC(=O)c1c(C)c2cnc(Nc3ccc(CN4CCC(N(C)C(=O)C5CC6(CC(Nc7nc(NC(C)C)ccc7C(=O)Nc7ccc(N(C)C)nn7)C6)C5)CC4)cn3)nc2n(C2CCCC2)c1=O (stereo not drawn) [CPD-595, 2-((6-((1-((6-((6-acetyl-8-cyclopentyl-5-methyl-7-oxo-7,8-dihydropyrido[2,3-d]pyrimidin-2-yl)amino)pyridin-3-yl)methyl)piperidin-4-yl)(methyl)carbamoyl)spiro[3.3]heptan-2-yl)amino)-N-(6-(dimethylamino)pyridazin-3-yl)-6-(isopropylamino)nicotinamide]
< 50 nM	55 to 85%	55 to 85%	CC(=O)c1c(C)c2cnc(Nc3ccc(CN4CCN(CC(=O)N5CCC6(CCC(Nc7nc(C8CC8)ccc7C(=O)Nc7ccc(N(C)C)nn7)C6)C5)CC4)cn3)nc2n(C2CCCC2)c1=O (stereo not drawn) [CPD-581, 2-((2-(2-(4-((6-((6-acetyl-8-cyclopentyl-5-methyl-7-oxo-7,8-dihydropyrido[2,3-d]pyrimidin-2-yl)amino)pyridin-3-yl)methyl)piperazin-1-yl)acetyl)-2-azaspiro[4.4]nonan-7-yl)amino)-6-cyclopropyl-N-(6-(dimethylamino)pyridazin-3-yl)nicotinamide]
> 100 nM	55 to 85%	55 to 85%	CNc1ccc(C(=O)Nc2ccc(N(C)C)nn2)c(NCCCCCNC(=O)CN2CCN(c3ccc(Nc4ncc5cc(C(=O)N(C)C)n(C6CCCC6)c5n4)nc3)CC2)n1 [CPD-627, 7-cyclopentyl-2-((5-(4-(2-((5-((3-((6-(dimethylamino)pyridazin-3-yl)carbamoyl)-6-(methylamino)pyridin-2-yl)amino)pentyl)amino)-2-oxoethyl)piperazin-1-yl)pyridin-2-yl)amino)-N,N-dimethyl-7H-pyrrolo[2,3-d]pyrimidine-6-carboxamide]
> 100 nM	> 85%	> 85%	CNc1ccc(C(=O)Nc2ccc(N(C)C)nn2)c(NCCOCCOCCC(=O)N2CCN(c3ccc(Nc4ncc5cc6n(c5n4)C4(CCCCC4)CNC6=O)nc3)CC2)n1 [CPD-639, N-(6-(dimethylamino)pyridazin-3-yl)-6-(methylamino)-2-((2-(2-(3-oxo-3-(4-(6-((6′-oxo-7′,8′-dihydro-6′H-spiro[cyclohexane-1,9′-pyrazino[1′,2′:1,5]pyrrolo[2,3-d]pyrimidin]-2′-yl)amino)pyridin-3-yl)piperazin-1-yl)propoxy)ethoxy)ethyl)amino)nicotinamide]
< 50 nM	55 to 85%	55 to 85%	CC(=O)c1c(C)c2cnc(Nc3ccc(N4CCN(CC(=O)NCC56CC(Nc7nc(NC(C)C)ccc7C(=O)Nc7ccc(N(C)C)nn7)(C5)C6)CC4)cn3)nc2n(C2CCCC2)c1=O [CPD-429, 2-((3-((2-(4-(6-((6-acetyl-8-cyclopentyl-5-methyl-7-oxo-7,8-dihydropyrido[2,3-d]pyrimidin-2-yl)amino)pyridin-3-yl)piperazin-1-yl)acetamido)methyl)bicyclo[1.1.1]pentan-1-yl)amino)-N-(6-(dimethylamino)pyridazin-3-yl)-6-(isopropylamino)nicotinamide]
> 100 nM	> 85%	> 85%	CNc1ccc(C(=O)Nc2ccc(N(C)C)nn2)c(NCCCCCCCNC(=O)CN2CCN(c3ccc(Nc4ncc5cc6n(c5n4)C4(CCCCC4)CNC6=O)nc3)CC2)n1 [CPD-645, N-(6-(dimethylamino)pyridazin-3-yl)-6-(methylamino)-2-((7-(2-(4-(6-((6′-oxo-7′,8′-dihydro-6′H-spiro[cyclohexane-1,9′-pyrazino[1′,2′:1,5]pyrrolo[2,3-d]pyrimidin]-2′-yl)amino)pyridin-3-yl)piperazin-1-yl)acetamido)heptyl)amino)nicotinamide]
< 50 nM	55 to 85%	55 to 85%	CC(=O)c1c(C)c2cnc(Nc3ccc(N4CCC5(CC4)CC5C(=O)NC4CC5(C4)CC(Nc4nc(NC(C)C)ccc4C(=O)Nc4ccc(N(C)C)nn4)C5)cn3)nc2n(C2CCCC2)c1=O (stereo not drawn) [CPD-414, 6-(6-((6-acetyl-8-cyclopentyl-5-methyl-7-oxo-7,8-dihydropyrido[2,3-d]pyrimidin-2-yl)amino)pyridin-3-yl)-N-(6-((3-((6-(dimethylamino)pyridazin-3-yl)carbamoyl)-6-(isopropylamino)pyridin-2-yl)amino)spiro[3.3]heptan-2-yl)-6-azaspiro[2.5]octane-1-carboxamide]
< 50 nM	> 85%	55 to 85%	CC(=O)c1c(C)c2cnc(Nc3ccc(CN4CCN(CC(=O)N5CC6(CC(Nc7nc(NC(C)C)ccc7C(=O)Nc7ccc(N(C)C)nn7)C6)C5)CC4)cn3)nc2n(C2CCCC2)c1=O [CPD-422, 2-((2-(2-(4-((6-((6-acetyl-8-cyclopentyl-5-methyl-7-oxo-7,8-dihydropyrido[2,3-d]pyrimidin-2-yl)amino)pyridin-3-yl)methyl)piperazin-1-yl)acetyl)-2-azaspiro[3.3]heptan-6-yl)amino)-N-(6-(dimethylamino)pyridazin-3-yl)-6-(isopropylamino)nicotinamide]
